Assays:
Acute toxicity in rats = conditions: rat, in vivo, topical or ocular
[1] = Acute toxicity in rabbits; conditions: rabbit, in vivo, oral
in vivo = conditions: rat, po

## S=c1[nH]c2cc(Cl)c(Oc3ccc(Cl)cc3Cl)cc2[nH]1 [Example 1/2, 5-chloro-6-(2',4'-dichlorophenoxy)-2H-1,3-dihydro-benzimidazole-2-thione]
Acute toxicity in rats
  LD50: > 3000 mg/kg
[1]
  LD50: > 6000 mg/kg
In vivo
  LD50: 3100 mg/kg
